Test results taken from ChEMBL document CHEMBL1132776, “(E) -6-(1-alkyloxyiminoalkyl)-5,8-dimethoxy-1,4-naphthoquinones: synthesis, cytotoxic activity and antitumor activity” (2000).
Converted amounts (≈) assume the structure as drawn.

Tests used:
A549 = experiment: The compound was evaluated for antiproliferative activity against A549 cell line; format: functional; details: Homo sapiens, read-out: ED50 (the source's name)
L1210 = experiment: The compound was evaluated for antiproliferative activity against L1210 cell line; format: functional; details: Mus musculus, read-out: ED50 (the source's name)
Mus musculus = species: Mus musculus; experiment: Survival ratio (SR) is the number of mice surviving after 80 days among 8 mice; format: functional
CCRF S-180 = experiment: Percent ratio of treated to control mice after intraperitoneal injection of 1x10E7 S180 cells for antitumor activity was determined; format: functional, Mus musculus

Compound | EC50 (A549) [µg/mL] | EC50 (L1210) [µg/mL] | Survival ratio (Mus musculus) | T/C (CCRF S-180) [%]
CCCO/N=C/c1cc(OC)c2c(c1OC)C(=O)C=CC2=O | > 10 | 0.107 (≈ 0.353 µM) | 2 | 229
CCCCCCCCCCCCO/N=C/c1cc(OC)c2c(c1OC)C(=O)C=CC2=O | > 10 | 0.311 (≈ 0.724 µM) | 0 | 119
CCCCCCCO/N=C/c1cc(OC)c2c(c1OC)C(=O)C=CC2=O | > 10 | 0.213 (≈ 0.593 µM) | 5 | 355
CCCCCC/C(=N\OCCCCC)c1cc(OC)c2c(c1OC)C(=O)C=CC2=O | > 10 | 0.224 (≈ 0.539 µM) | 5 | 363
CCCCCCCO/N=C(\CCCCCC)c1cc(OC)c2c(c1OC)C(=O)C=CC2=O | > 10 | 0.162 (≈ 0.365 µM) | 5 | 375
CCCCCCCCCO/N=C(\CCCCCC)c1cc(OC)c2c(c1OC)C(=O)C=CC2=O | > 10 | 1.15 (≈ 2.43 µM) | 0 | 96
CCCCCCCCCO/N=C/c1cc(OC)c2c(c1OC)C(=O)C=CC2=O | > 10 | 0.19 (≈ 0.49 µM) | 5 | 355
CO/N=C/c1cc(OC)c2c(c1OC)C(=O)C=CC2=O | > 10 | 0.109 (≈ 0.396 µM) | 2 | 318
CCCCCO/N=C/c1cc(OC)c2c(c1OC)C(=O)C=CC2=O | > 10 | 0.175 (≈ 0.528 µM) | 5 | 388
CCCCCC/C(=N\OC)c1cc(OC)c2c(c1OC)C(=O)C=CC2=O | > 10 | 0.192 (≈ 0.534 µM) | 5 | 323
CCCCCC/C(=N\OCCC)c1cc(OC)c2c(c1OC)C(=O)C=CC2=O | > 10 | 0.166 (≈ 0.428 µM) | 5 | 369
CCCCCCCCCCCCO/N=C(\CCCCCC)c1cc(OC)c2c(c1OC)C(=O)C=CC2=O | > 10 | 0.193 (≈ 0.376 µM) | 2 | 231
COc1cc(/C=N/OCc2ccccc2)c(OC)c2c1C(=O)C=CC2=O | > 10 | 0.264 (≈ 0.751 µM) | 4 | 331
COc1cccc2c1C(=O)c1c(O)c3c(c(O)c1C2=O)C[C@@](O)(C(=O)CO)C[C@@H]3O[C@H]1C[C@H](N)[C@H](O)[C@H](C)O1 [DOXORUBICIN] | 1.01 (≈ 1.86 µM) | 0.016 (≈ 0.0294 µM) | 3 | 315
